A short description of series [1]: Population PK model (NONMEM) of plasma CBZ and 3 metabolites after oral CBZ. The settings on record: for % Interindividual variability of V2: V2 shared by the 3 metabolites; for clearance: human, plasma, oral; for V2, volume of distribution of metabolites: same V2 estimated for CBZE, 2OH-CBZ and 3OH-CBZ, apparent; for effect of concomitant treatment as covariate on CBZ clearance/metabolism: categorical covariate on CLTOT in the population PK model, small numbers of subjects.

The subject of series [2] is microsomal epoxide hydrolase. The settings on record: concurrent brivaracetam therapy in patients on CBZ; cited from earlier work.
On the set-up of series [3]: method as in PMID 6491988. The settings on record: fixed, not estimated; CL2 (to CBZE)=CLTOT*(1-FM1), CL3=CL4=CLTOT*FM1/2; cited from earlier work.
Details of series [4]: method as in PMID 17382827. To be noted: patients treated with CBZ, cited from earlier work.
The conditions of series [5]: cited from earlier work.
For series [6] the following is noted: 70-kg patient prescribed 400 mg CBZ; model assumes 0.65 of CBZ converted to CBZE; cited from earlier work.
Setting [7] is: final model, log-normal distribution.

Like-named read-outs stand apart in the source and are kept apart here.

Turning to `NC(=O)N1c2ccccc2C=Cc2cc(O)ccc21` [2OH‐CBZ, 2‐hydroxycarbamazepine], in series [1] (setting [7]), the “% Interindividual variability of CL3E” value stood at 42.3% and the “% Interindividual variability of V2” value was found to be 149.7%. Besides, the clearance in series [1] is 12100 mL/min. The CL3E induction effect in series [1] (multiplier (fold) on CL3E for induced period vs non-induced) was determined as 1.63. Also, the “V2, volume of distribution of metabolites” value (“V2, volume” for short) in series [1] (population mean) is given as 39.2 L.

As for `NC(=O)N1c2ccccc2C=Cc2ccc(O)cc21` [3OH‐CBZ, 3‐hydroxycarbamazepine], in series [1] (setting [7]), the “% Interindividual variability of CL4E” value is 34.5% and the “% Interindividual variability of V2” value worked out at 149.7%. The clearance in series [1] was 9050 mL/min. Also, the “V2, volume” value in series [1] (population mean) is on record as 39.2 L.

As to `CCC[C@@H]1CC(=O)N([C@@H](CC)C(N)=O)C1` [Brivaracetam], in series [2], the “rise in CBZE levels, median” value was 83.9% and the “rise in CBZE levels, range” value is given as 57.9–341.7%.

`NC(=O)N1c2ccccc2C=Cc2ccccc21` [CBZ, Carbamazepine]: the “FM1 (metabolite fraction)” value in series [3] is on record as 0.64. Besides, the “patients experiencing a hypersensitivity reaction” value in series [4] is given as “up to 10%”. Besides, in series [4] (listed as Carbamazepine), the “patients experiencing a hypersensitivity reaction” value is ~ 10%. Besides, in series [1] (setting [7]), the “% Interindividual variability of CLTOT” value is listed as 25.3%, the “% Interindividual variability of FM1” value worked out at 6.3%, the “% Interindividual variability of KASTAR” value was 75.3% and the “% Interindividual variability of V1” value worked out at 13.6%. Further, the “V1, central distribution volume of CBZ” value in series [1] (population mean, final model, apparent (V/F)) is reported as 161 L. The “CLTOT, total clearance of CBZ” value in series [1] (population mean, final model, oral dosing, apparent (CL/F), typical value non-induced, 400 mg daily dose, no phenytoin) was determined as 1.96 L/h. In addition, the KASTAR in series [1] (population mean, absorption rate constant KA=CLTOT/V1+KAstar) was determined as 0.409 h⁻¹. Besides, the “fraction of CBZ converted to CBZE assumed in this model” value in series [5] is listed as 0.36. For the same compound, the “parent CBZ primarily converted to CBZE” value in series [5] (prior mass balance information) is recorded as 36%. Besides, the “fraction of CBZ converted to CBZE assumed in the model of Jiao et al.” value in series [5] (ref Jiao et al. (58)) was 0.65.

In the case of `NC(=O)N1c2ccccc2C2OC2c2ccccc21` (stereo not shown) [CBZE, carbamazepine 10,11‐epoxide], the “CL estimate for CBZE in a previous population PK model” value in series [6] is 28 L/h. The “reduction of clearance of CBZE” value in series [1] (EPHX1-416G/G genotype (3 subjects) compared with EPHX1-416G/A and -416A/A) was “approximately 50%”. Besides, in series [1] (setting [7]), the “% Interindividual variability of CL2E” value worked out at 27.9% and the “% Interindividual variability of V2” value is listed as 149.7%. In addition, the clearance in series [1] was 162 mL/min. Besides, the “Cov.Eff.(EPHXAGHOM on CL2E)” value in series [1] (multiplier on CBZE clearance in EPHX1-416G/G homozygotes (n=3) vs G/A and A/A) is given as 0.502. Moreover, the “V2, volume” value in series [1] (population mean) is recorded as 39.2 L.

With `NC(=O)OCC(COC(N)=O)c1ccccc1` [felbamate], in series [1], the “effect of concomitant treatment as covariate on CBZ clearance/metabolism” value (“effect … on CBZ clearance/metabolism” for short) is on record as “None of those antiepileptic drugs (AEDs) achieved a significant effect”.

In the case of `COc1ccc2[nH]c([S+]([O-])Cc3ncc(C)c(OC)c3C)nc2c1` (stereo not shown) [omeprazole], the “effect … on CBZ clearance/metabolism” value in series [1] is recorded as “Neither was found to affect metabolism of CBZ significantly”.

On to `CCC1(c2ccccc2)C(=O)NC(=O)NC1=O` [phenobarbital], for which, in series [1], the “effect … on CBZ clearance/metabolism” value was “None of those antiepileptic drugs (AEDs) achieved a significant effect”.

(Values after PMC8247401, “Evaluation of clinical and genetic factors in the population pharmacokinetics of carbamazepine” (British Journal of Clinical Pharmacology, 2020).)
